We go through 5 compounds from patent publication US20250367113A1, “DRUG DELIVERY SYSTEM COMPRISING AN ANTI-INFLAMMATORY AGENT OR A SALT THEREOF FOR THE APPLICATION TO ESOPHAGEAL MUCOUS MEMBRANES” (EsoCap AG, priority 2022, published 2025).

One series has as its system eotaxin-3 secretion. The following applies: cells from eosinophilic esophagitis patients; cited from earlier work.
Series [1] concerns refractory eosinophilic esophagitis. To be noted: systemically administered, small case series; cited from earlier work.
Series [2] in a line: UV/Vis spectroscopy of tofacitinib content and spectrum in the polymer film. Format: physicochemical. To be noted: citrate buffer, pH 4.0 with 20% methanol. The procedure: Further, the film was analyzed for the content of tofacitinib. To this end, 6 circular samples with a diameter of 1.9 cm (2.84 cm^2) were cut at random positions of the film and analyzed with a UV/Vis spectroscopy in a citrate buffer, pH 4.0 with 20% methanol. The absorption spectrum is shown in FIG. 10 in comparison to a reference sample (tofacitinib solved in citrate buffer, pH 4.0 with 20% methanol).

Another series deals with eosinophilic esophagitis. To be noted: person, after 3 months of treatment; cited from earlier work.
The test system of the next series is atopic dermatitis. The following applies: placebo-controlled phase IIa study; cited from earlier work.
In series [3] the test system is refractory oral graft-versus-host disease. To be noted: single case, cited from earlier work.

On to `NC(=O)c1cnc(NCCc2ccc(O)c(Cl)c2)nc1NCc1ccccc1` [AS1517499], for which the “eotaxin-3 secretion by epithelial cells and fibroblasts” value in the series on eotaxin-3 secretion is “block eotaxin-3 secretion”.
Consider `Sc1ncnc2nc[nH]c12` [6-mercaptopurine], for which, in series [1], the “efficacy in the treatment of refractory eosinophilic esophagitis” value was “efficient”.
Take `Cc1oncc1C(=O)Nc1ccc(C(F)(F)F)cc1` [leflunomide]: in the series with eotaxin-3 secretion, the “eotaxin-3 secretion by epithelial cells and fibroblasts” value is “block eotaxin-3 secretion”.
Regarding `C[C@@H]1CCN(C(=O)CC#N)C[C@@H]1N(C)c1ncnc2[nH]ccc12` [Tofacitinib, tofacitinib], the “stability of tofacitinib in the film (absorption spectrum versus reference sample)” value in series [2] was “can be stably prepared in a film”. In addition, in the series on eosinophilic esophagitis, the “appearance of the esophagus” value is listed as “significantly improve the appearance of the esophagus” and the “number of eosinophils found in esophageal biopsies” value is “least number of eosinophils found in esophageal biopsies”. Further, the “results of topical treatment of atopic dermatitis” value in the series on atopic dermatitis is given as “convincing results”.
Regarding `Cn1cnc([N+](=O)[O-])c1Sc1ncnc2nc[nH]c12` [azathioprine], in series [1], the “efficacy in the treatment of refractory eosinophilic esophagitis” value was “efficient”. The tolerability result in series [3] (additional topical administration) is listed as “well tolerated”. Also, the “clinical benefit of additional topical administration” value in series [3] (topically and systemically administered suspension) is recorded as “seemed to add some clinical benefit”.
